The values that follow come from patent US8119667B2, “Carbonates of fenicol antibiotics” (Schering-Plough Animal Health Corporation, priority 2005, dated 2012).

As a reminder, the melting point is the temperature, or range, at which the solid turns liquid. Broadly, the solubility is the dissolved amount per volume that the medium holds.

Structures are written as SMILES. Converted amounts (≈) assume the structure as drawn.

Data set [1] is described as follows: In vivo release of florfenicol: plasma levels after prodrug administration to rats. Set-up: species or system Rat. The note with it: IV. The protocol: The pharmacokinetic profile of active antibiotic after prodrug administration, in vivo, was determined, as follows: • 1. In vivo release of active antibiotic confirmed in two different animal species: • The prodrug compound of Example 18 was administered by an intravenous (“IV”) route to rat and cattle subjects, followed by determination of florfenicol concentrations in the plasma collected over time. • The data of Table 8, below, illustrates the plasma levels of florfenicol that resulted following IV administration of the prodrug compound of Example 18, to both rat and cattle. • 4. Time of release of active moiety: • a.

A short description of data set [2]: Syringeability of dosing solutions (dripping-syringe method). Type of data set: physicochemical. Particulars: 418 mg/ml (35% weight by volume florfenicol); Triacetin/benzyl alcohol - 2:1; 15° C.
Data set [3] has as its system naturally occurring bovine respiratory disease (BRD). The data set is described as follows: Therapeutic efficacy of a single SC dose in cattle with naturally occurring bovine respiratory disease. Type of data set: in vivo. From the text:
Therapeutic efficacy of a single dose of Nuflor® (Schering-Plough Animal Health) was compared with a single dose of the prodrug compound of Example 2 after SC administration in cattle suffering from naturally occurring bovine respiratory disease (BRD).

Data set [4] is described as follows: In vitro enzymatic release of parent florfenicol from prodrugs in bovine serum. In kind it is in vitro ADME. The note with it: 37° C. From the text: The ability of a prodrug derivative of a parent drug molecule to act efficiently in vivo as a source of the free parent drug determines the utility of a particular prodrug for treatment. The prodrug's ability to release the parent drug in vivo, in the presence of endogenous enzymes, can be determined by measuring the systemic levels of the parent drug after administration of the prodrug to the animal. This releasibility can also be assessed in vitro by measuring the release of the parent drug after mixing with animal whole blood, plasma or serum. Selected benzylic carbonate prodrugs of florfenicol were tested for release of florfenicol after in vitro mixing with bovine serum. […] A general trend of more lipophilic carbonates of florfenicol showing higher rates of degradation and release seems to be present among the compounds tested.
50 microliter of stock solution of carbonate pro-drug (10 mg/mL in DMSO) was added to 5 mL donor bovine serum and mixed. Aliquots of 400 microliter of the resulting solution were transferred into 1.5 mL plastic centrifuge tubes. Each plastic tube was placed into at 37° C. water bath for incubation. Samples were removed at 0, 1, 2, 4, 8, and 24 hours, and after addition of 400 microliter of acetonitrile to stop the reaction, rapidly stirred for 30 seconds. The precipitate was removed by centrifugation on an Eppendorf 5415G at 14000 rpm for 5 minutes. The clear supernatant solution was sampled for the HPLC analysis. The peak area of florfenicol was used to calculate the conversion of the prodrugs.

A short description of another data set: Aqueous solubility. Type of data set: physicochemical. The note with it: aqueous medium (not further specified). As for the experimental part:
In some therapeutic applications florfenicol is administered in concentrated organic solution subcutaneously where it is known to form localized depot of the drug which results in the desired sustained release of the drug into the circulation. In such cases solubility of florfenicol in aqueous media represents one of important factors determining the rate of the sustained release. Another important factor affecting the sustained release of florfenicol from the subcutaneous depot site is the concentration of the dosing solution and the solvent composition of the formulation. Apart from the broader range of solvents which can be used for acceptable formulations of florfenicol benzylic carbonate prodrugs these prodrugs also allow a wide range of aqueous solubilities. Solubilities achieved with these prodrugs range from slightly to dramatically lower than that of florfenicol. Reduced aqueous solubilities of such prodrugs may be useful in controlling the rate of dissolution of the prodrug at the subcutaneous depot site and may allow achieving optimized sustained release of the parent drug.

The nature of data set [5]: Syringeability of dosing solutions (dripping-syringe method). Type of data set: physicochemical. As for the experimental part: Table 4, below, provides evaluations of the syringeability of dosing solutions of selected florfenicol benzylic carbonate prodrugs at concentrations equivalent to 300 mg/ml florfenicol (30% weight/volume).
High concentrations of fenicol or fenicol drug contained in a fenicol prodrug are often necessary for convenient administration of the necessary amount of the desired amount of the antibiotic. Due to the limited solubility of fenicols in many organic solvents or mixtures of solvents acceptable for injectable formulations the choice of solvents for preparation of highly concentrated florfenicol solutions is limited. As a result highly concentrated solutions of fenicol drugs in organic solvents or solvent mixtures may become highly viscous and difficult to administer by a syringe. Therefore the ability of fenicol benzylic carbonate prodrugs to dissolve in a wider range of organic solvents or mixtures of solvents acceptable for injectable formulations offered the potential to prepare highly concentrated solutions for injections with lower viscosity. […] Test solutions of florfenicol benzylic carbonates containing concentrations of florfenicol (mg/mL) equivalent to the concentration present in Nuflor® formulation were prepared. Syringeabilities of the solutions were evaluated by means of the “dripping syringe” method in which the dripping times (sec) of equal volumes of such solutions under free gravitational flow conditions from a vertically positioned syringe were measured at 15° C. After removing the plunger from a 5 ml polyethylene disposable syringe (5 ml Luer, Norm-Ject Zentrish/Henke Saas Wolf GMBH) and fitting the syringe with a disposable needle (B-D® 16G1 Precision Glide/BentonDickinson & CO) the test solutions were loaded from the top into the syringe and the time necessary for the free flow of 2 mL of solution (between 3 ml and 1 ml marks) was recorded in triplicate. The syringeabilities relative to Nuflor® were calculated by dividing the dripping time for the test solutions (entries 1-12) by the dripping time measured for the commercial sample of Nuflor® formulation (entry 13) As it is evident from the results in Table 4 the syringeabilities of tested solutions containing benzyl alcohol as viscosity diluent had relative syringeabilities <1.00 and were therefore better than Nuflor® (30% weight/volume florfenicol solution in propylene glycol/polyethylene glycol 300/2-methyl pyrolidinone). Due to their better syringeability these solutions represent more favorable formulations for injectable delivery of florfenicol. Solution of the florfenicol benzylic carbonate of the example 2 in triacetin/2-pyrolidinone—1/1 lacking the benzyl alcohol viscosity diluent was the only solution with syringeability poorer that than that of Nuflor® (entry 5).

[6] abbreviates: 358 mg/ml, 2-pyrolidinone/benzyl alcohol - 1:1, 15° C.
[7] abbreviates: 358 mg/ml, Triacetin/2-pyrolidinone - 1:1, 15° C.
Where [8] appears, read: 358 mg/ml, Triacetin/benzyl alcohol - 2:1.5, 15° C.

The compound `CCOC(=O)O[C@H](c1ccc(S(C)(=O)=O)cc1)[C@@H](CF)NC(=O)C(Cl)Cl` [Example 2, (1R,2S)-2-(2,2-dichloroacetamido)-3-fluoro-1-(4-(methylsulfonyl)phenyl)propyl ethyl carbonate] gave a melting point of 110 to 112 °C. In addition, in data set [1], the “time of release of active antibiotic (florfenicol) after administration” value was “less than half an hour”. In addition, in data set [2], the “Syringeability measurement: Dripping time” value was 207 ± 3 s and the “Syringeability measurement: Relative to NUFLOR” value turned out to be 0.89. Further, the “Treatment Failure (on day 10)” value in data set [3] (single S/C dose equivalent to 40 mg/kg of florfenicol (Nuflor 40 mg/kg; Example 2 48 mg/kg), animals failing out of animals treated) is listed as 5 out of 24. The “Temp. (day 0)” value in data set [3] (single S/C dose equivalent to 40 mg/kg of florfenicol (Nuflor 40 mg/kg; Example 2 48 mg/kg), day 0) came out at 40.4 °C. In data set [3] (single S/C dose equivalent to 40 mg/kg of florfenicol (Nuflor 40 mg/kg; Example 2 48 mg/kg), day 3), the “Temp. (day 3)” value amounted to 38.8 °C. In addition, the “Temp. (day 10)” value in data set [3] (single S/C dose equivalent to 40 mg/kg of florfenicol (Nuflor 40 mg/kg; Example 2 48 mg/kg), day 10) is 38.7 °C. Further, in data set [3] (single SC dose, cattle with BRD), the “efficacy compared with Nuflor” value was “comparable”. Also, in data set [4] (0 h), the “Florfenicol released from prodrugs (% of total) after treatment with bovine serum” value is “BQL^a”. Besides, the “Florfenicol released from prodrugs (% of total) after treatment with bovine serum” value in data set [4] (1 h) was “BQL”. In data set [4] (2 h), the “Florfenicol released from prodrugs (% of total) after treatment with bovine serum” value is listed as “BQL”. The amount in solution in “Aqueous solubility” (solubility) came to 690 µg/mL (≈ 1600 µM). Moreover, in data set [5] (setting [6]), the “Syringeability measurement: Dripping time” value was determined as 108 ± 1 s and the “Syringeability measurement: Relative to NUFLOR” value is recorded as 0.46. In data set [5] (setting [7]), the “Syringeability measurement: Dripping time” value is 268 ± 4 s and the “Syringeability measurement: Relative to NUFLOR” value is reported as 1.15. In addition, in data set [5] (setting [8]), the “Syringeability measurement: Dripping time” value came to 97 ± 1 s and the “Syringeability measurement: Relative to NUFLOR” value is 0.42. Besides, the “Syringeability measurement: Relative to NUFLOR” value in data set [5] (prodrug concentration equivalent to 300 mg/ml florfenicol, Triacetin/benzyl alcohol - 2:1 (vol/vol), 15° C.) is 0.55. Also, the “Syringeability measurement: Dripping time” value in data set [5] (prodrug concentration equivalent to 300 mg/ml florfenicol, Triacetin/benzyl alcohol - 2:1 (vol/vol), free flow of 2 mL at 15° C.) came out at 128 ± 7 s.
